# Test results reported in patent US9101136B2, “Synergistic herbicide/fungicide composition containing certain pyridine carboxylic acids and certain fungicides” (Dow AgroSciences LLC, priority 2010, dated 2015).
# What was measured:
# Format in all cases: in vivo
# [1] = system: kochia (Kochia scoparia L; KCHSC); assay: Postemergence herbicidal activity of mixtures on kochia; design: KCHSC Ob: unit: %
# Protocol: (§1) Seeds of the desired test plant species were planted in Sun Gro MetroMix 306 planting mixture, which typically has a pH of 6.0 to 6.8 and an organic matter content of about 30 percent, in plastic pots with a surface area of 103.2 square centimeters (cm^2). When required to ensure good germination and healthy plants, a fungicide treatment and/or other chemical or physical treatment was applied. The plants were grown for 7-36 days (d) in a greenhouse with an approximate 14-hour (h) photoperiod which was maintained at about 18° C. during the day and 17° C. during the night. Nutrients and water were added on a regular basis and supplemental lighting was provided with overhead metal halide 1000-Watt lamps as necessary. The plants were employed for testing when they reached the second or third true leaf stage.
# (§2) Treatments consisted of a cereal fungicide compound (as listed in Tables 1 through 34) and the cereal herbicide, 4-amino-3-chloro-6-(4-chloro-2-fluoro-3-methoxyphenyl)pyridine-2-carboxylic acid, alone and in combination. Weighed amounts of acid, esters (methyl) or salts (triethylammonium, TEA) of 4-amino-3-chloro-6-(4-chloro-2-fluoro-3-methoxyphenyl)pyridine-2-carboxylic acid (Compound I) were placed in 25 milliliter (mL) glass vials and dissolved in a volume of 97:3 volume-to-volume (v/v) acetone/dimethyl sulfoxide (DMSO) to obtain 4.5 milligrams active ingredient per milliliter (mg ai/mL) concentrated solutions. […] The concentrated solutions of Compound I were diluted to 1.5 mg ai/mL with the addition of 2 volumes of an aqueous mixture containing acetone, water, isopropyl alcohol, DMSO, Agri-dex crop oil concentrate, and Triton® X-77 surfactant in a 64.7:26.0:6.7:2.0:0.7:0.01 v/v ratio. A dilution solution was prepared by mixing 1 volume of 97:3 v/v acetone/DMSO and 2 volumes of an aqueous mixture containing acetone, water, isopropyl alcohol, DMSO, Agri-dex crop oil concentrate, and Triton® X-77 surfactant in a 64.7:26.0:6.7:2.0:0.7:0.01 v/v ratio. Compound requirements are based upon a 12 mL application volume at a rate of 187 liters per hectare (L/ha). The concentrated solutions of the cereal fungicides were prepared following the same procedure. Weighed amounts of fungicide were placed in 25 mL glass vials and dissolved in a volume of 97:3 v/v acetone/DMSO to obtain concentrated fungicide solutions. The concentrated solutions of the safener were prepared following the same procedure. Weighed amounts of safener were placed in 25 mL glass vials and dissolved in a volume of 97:3 v/v acetone/DMSO to obtain concentrated safener solutions.
# (§3) Spray solutions of the cereal herbicide and the fungicidal compound mixtures were prepared by adding the concentrated solutions to the appropriate amount of dilution solution to form 12 mL spray solution with active ingredients in combinations. Spray solutions of the cereal herbicide, herbicide safener and the fungicidal compound mixtures were prepared by adding the concentrated solutions to the appropriate amount of dilution solution to form 12 mL spray solution with active ingredients in combinations.
# (§4) Formulated compounds were applied to the plant material with an overhead Mandel track sprayer equipped with 8002E nozzles calibrated to deliver 187 L/ha over an application area of 0.503 square meters (m^2) at a spray height of 18 inches […] above average plant canopy. Control plants were sprayed in the same manner with the solvent blank.
# (§5) The treated plants and control plants were placed in a greenhouse as described above and watered by sub-irrigation to prevent wash-off of the test compounds. After 20-22 d, the condition of the test plants as compared with that of the control plants was determined visually and scored on a scale of 0 to 100 percent where 0 corresponds to no injury and 100 corresponds to complete kill. […]
# [2] = system: scented mayweed (Matricaria chamomila L; MATCH); assay: Postemergence herbicidal activity of mixtures on scented mayweed
# Protocol: as §1, §2, §3, §4, §5
# [3] = system: Russian thistle (Salsola iberica L; SASKR); assay: Postemergence herbicidal activity of mixtures on Russian thistle
# Protocol: as §1, §2, §3, §4, §5
# [4] = system: bird's-eye speedwell (Veronica persica L; VERPE); assay: Postemergence herbicidal activity of mixtures on bird's-eye speedwell
# Protocol: as §1, §2, §3, §4, §5
# [5] = system: wild pansy (Viola tricolor L; VIOTR); assay: Postemergence herbicidal activity of mixtures on wild pansy
# Protocol: as §1, §2, §3, §4, §5
# Wheat = assay: Safening activity of herbicidal compositions on wheat (crop injury)
# Protocol: as §1, §2, §3, §4, §5
# Barley = assay: Safening activity of herbicidal compositions on barley (crop injury)
# Protocol: as §1, §2, §3, §4, §5
structure (smiles),measurement,setting,value
"CO/C=C(/C(=O)OC)c1ccccc1Oc1cc(Oc2ccccc2C#N)ncn1 [Azoxystrobin, methyl (αE)-2-[[6-(2-cyanophenoxy)-4-pyrimidinyl]oxy]-α-(methoxymethylene)benzeneacetate]",pest or weed control at 62.5 g/ha,"[1]; Bassia scoparia, post-emergence, fungicide 62.5 g/ha alone, read-out: KCHSC Ob",0%
same,KCHSC Ob,[1]; fungicide 250 g/ha,0
same,pest or weed control at 62.5 g/ha,"[2]; Matricaria, post-emergence, fungicide 62.5 g/ha alone, read-out: MATCH Ob",0%
same,MATCH Ob,[2]; fungicide 250 g/ha,0
same,pest or weed control at 62.5 g/ha,"[3]; Salsola tragus, post-emergence, fungicide 62.5 g/ha alone, read-out: SASKR Ob",0%
same,SASKR Ob,[3]; fungicide 250 g/ha,0
same,VERPE Ob,[4]; fungicide 250 g/ha,0
same,pest or weed control at 62.5 g/ha,"[5]; Viola tricolor, post-emergence, fungicide 62.5 g/ha alone, read-out: VIOTR Ob",0%
same,TRZAS Ob,Wheat; fungicide 250 g/ha,0
same,HORVS Ob,Barley; fungicide 250 g/ha,0
O=C(O)COc1ccc(Cl)c2cccnc12 [Cloquintocet],KCHSC Ob,[1]; Cloquintocet 4.4 g/ha,0
same,KCHSC Ob,[1]; Cloquintocet 8.75 g/ha,0
same,MATCH Ob,[2]; Cloquintocet 4.4 g/ha,0
same,MATCH Ob,[2]; Cloquintocet 8.75 g/ha,0
same,SASKR Ob,[3]; Cloquintocet 4.4 g/ha,0
same,SASKR Ob,[3]; Cloquintocet 8.75 g/ha,0
same,VERPE Ob,[4]; Cloquintocet 4.4 g/ha,0
same,VERPE Ob,[4]; Cloquintocet 8.75 g/ha,0
same,VIOTR Ob,[5]; Cloquintocet 4.4 g/ha,0
same,VIOTR Ob,[5]; Cloquintocet 8.75 g/ha,0
same,TRZAS Ob,Wheat; Cloquintocet 4.4 g/ha,0
same,TRZAS Ob,Wheat; Cloquintocet 8.75 g/ha,0
same,HORVS Ob,Barley; Cloquintocet 4.4 g/ha,0
same,HORVS Ob,Barley; Cloquintocet 8.75 g/ha,0
COc1c(Cl)ccc(-c2nc(C(=O)O)c(Cl)c(N)c2F)c1F [Compound I Acid],KCHSC Ob,[1]; Compound I Acid 35 g/ha,98
same,MATCH Ob,[2]; Compound I Acid 35 g/ha,87
same,SASKR Ob,[3]; Compound I Acid 35 g/ha,89
same,VERPE Ob,[4]; Compound I Acid 35 g/ha,72
same,VIOTR Ob,[5]; Compound I Acid 35 g/ha,60
same,TRZAS Ob,Wheat; Compound I Acid 35 g/ha,22
same,HORVS Ob,Barley; Compound I Acid 35 g/ha,15
"CC(C1CC1)C(O)(Cn1cncn1)c1ccc(Cl)cc1 (stereo not drawn) [Cyproconazole, α-(4-chlorophenyl)-α-(1-cyclopropylethyl)-1H-1,2,4-triazole-1-ethanol]",pest or weed control at 19.8 g/ha,"[1]; Bassia scoparia, post-emergence, fungicide 19.8 g/ha alone, read-out: KCHSC Ob",0%
same,pest or weed control at 19.8 g/ha,"[2]; Matricaria, post-emergence, fungicide 19.8 g/ha alone, read-out: MATCH Ob",0%
same,pest or weed control at 19.8 g/ha,"[3]; Salsola tragus, post-emergence, fungicide 19.8 g/ha alone, read-out: SASKR Ob",0%
same,pest or weed control at 19.8 g/ha,"[4]; Veronica persica, post-emergence, fungicide 19.8 g/ha alone, read-out: VERPE Ob",0%
same,pest or weed control at 19.8 g/ha,"[5]; Viola tricolor, post-emergence, fungicide 19.8 g/ha alone, read-out: VIOTR Ob",0%
"CCCN(CCOc1c(Cl)cc(Cl)cc1Cl)C(=O)n1ccnc1 [Prochloraz, N-propyl-N-[2-(2,4,6-trichlorophenoxy)ethyl]-1H-imidazole-1-carboxamide]",pest or weed control at 101.25 g/ha,"[1]; Bassia scoparia, post-emergence, read-out: KCHSC Ob",0%
same,pest or weed control at 101.25 g/ha,"[2]; Matricaria, post-emergence, read-out: MATCH Ob",0%
same,pest or weed control at 101.25 g/ha,"[3]; Salsola tragus, post-emergence, read-out: SASKR Ob",0%
same,pest or weed control at 101.25 g/ha,"[4]; Veronica persica, post-emergence, read-out: VERPE Ob",0%
same,pest or weed control at 101.25 g/ha,"[5]; Viola tricolor, post-emergence, read-out: VIOTR Ob",0%
